The test system of the assay is sebum production in ear sebaceous glands of male Syrian hamsters. As to the kind of experiment: Animal Model for Inhibition of Sebum Production (hamster ear, HPLC of sebum lipids). The assay is classed as in vivo, Syrian hamster. The note with it: Mesocricetus auratus, 672 h, 4 weeks; for inhibition in vivo at 1 %: 1% topical twice daily; for inhibition in vivo at 3 %: 3% topical twice daily; for inhibition in vivo at 1.5 %: 1.5% topical twice daily. The protocol:
Luderschmidt et al. describes an animal model for testing whether compounds are capable of modulating sebum secretion, Arch. Derm. Res., 258, 185-191 (1977). This model uses male Syrian hamsters, whose ears contain sebaceous glands. Based on binding data and cellular assay data, selected compounds were chosen for screening in this model. Those compounds included the products of Examples 1, 20, 81, 82, and 109.
Testing for sebum inhibition was carried out in the following manner. Male Syrian hamsters aged 9 to 10 weeks were introduced into the laboratory environment and acclimated for 2 weeks prior to use in the study. Each group consisted of 5 animals and run in parallel with vehicle and positive controls. Prior to administration, a sufficient quantity of each compound was dissolved in 1 mL of a solvent consisting of ethanol, transcutol, and propylene glycol ([…]) to achieve the final concentration specified in Table IV below.
Animals were dosed topically twice daily, five days a week, for 4 weeks. Each dose consisted of 25 micro liters of vehicle control or drug. The dose was applied to the ventral surfaces of both the right and left ears. All animals were sacrificed approximately 18-24 hours after the final dose. The right ears were collected from each animal and used for sebum analysis.
The ears were prepped for HPLC analysis in the following manner. One 8 mm distal biopsy punch was taken, just above the anatomical “V” mark in the ear to normalize the sample area. The punch was pulled apart. The ventral biopsy surface (the area where the topical dose was directly applied to the sebaceous glands) was retained for testing and the dorsal surface of the biopsy punch was discarded.
Tissue samples were blown with N2 gas and stored at −80° C. under nitrogen until HPLC analysis. In addition to ear samples, an aliquot of each drug and vehicle (at least 250 ul) was also stored at −80° C. for inclusion in the HPLC analysis.
HPLC analysis was carried out on an extract of the tissue sample. Tissue samples were contacted with 3 ml of solvent (a 4:1 admixture of 2,2,4-trimethylpentane and isopropyl alcohol). The mixture was shaken for 15 minutes and stored overnight at room temperature, protected from light. The next morning 1 milliliter of water was added to the sample and shaken for 15 minutes. The sample was then centrifuged at approximately 1500 rpm for 15 minutes. Two ml of the organic phase (top layer) was transferred to a glass vial, dried at 37° C., under nitrogen, for approximately 1 hour, and then lyophilized for approximately 48 hours. The samples were then removed from the lyophilizer and each vial was reconstituted with 600 μl of solvent A (trimethylpentane/tetrahydrofuran (99:1)). The samples were then recapped and vortexed for 5 minutes.
Two hundred (200) μl of each sample was then transferred to a pre-labeled 200 μl HPLC vial with 200 μL glass inserts. The HPLC vials were placed in the autosampler tray for the Agilent 1100 series HPLC unit. The Agilent 1100 HPLC system consisted of a thermostated autosampler, a quarternary pump, a column heater, and an A/D interface module. All components were controlled by Agilent ChemStation software. A Waters Spherisorb S3W 4.6×100 mm analytical column was maintained at 30° C. by the Agilent column heater unit.
The HPLC autosampler was programmed to maintain the sample temperature at 20° C. throughout the run.
Ten (10) uL of each sample was injected in triplicate into the column. Two solvents were used for the solvent gradient. Solvent A was an admixture of trimethylpentane and tetrahydrofuran (99:1). Solvent B was ethylacetate. The gradient utilized is described in the table below: […]
The Sedex 75 Evaporative Light Scattering Detector (ELSD) was operated at 45° C. with a gain of 5, and N2 pressure maintained at 3.1 bar. Analog signal obtained by the instrument was sent to the Agilent A/D interface module where it was converted to a digital output. […]

Setting [1] is: cholesterol ester vs vehicle control, read-out: % CE reduction.
Setting [2] is: wax ester vs vehicle control, read-out: % WE reduction.

Where two headings read alike, the source gives them in different places.

In the case of `CC(C)CC(Oc1ccc(C#N)c(C(F)(F)F)c1)c1cccc(O)c1` (single isomer, unassigned; (+)) [Example 21, (+)4-[1-(3-Hydroxyphenyl)-3-methylbutoxy]-2-(trifluoromethyl)benzonitrile], the inhibition in vivo at 1 % is, setting by setting: under setting [1], 7%; under setting [2], 19%.

Take `CC(Oc1ccc(C#N)c(C(F)(F)F)c1)c1ccccc1` (racemic) [Example 1, 4-(1-Phenyl-ethoxy)-2-trifluoromethyl-benzonitrile]: the inhibition in vivo at 3 % was determined as 52% under setting [1] and 71% under setting [2].

As for `CC(Oc1ccc(C#N)c(C(F)(F)F)c1)c1cncc(O)c1` (single isomer, unassigned; (+)) [Example 74, (+)4-[1-(5-Hydroxypyridin-3-yl)ethoxy]-2-(trifluoromethyl)benzonitrile], the inhibition in vivo at 1 % reads like this: under setting [1], 21%; under setting [2], 24%.

`CCCC(Oc1ccc(C#N)c(C(F)(F)F)c1)c1cccc(O)c1` (single isomer, unassigned; (+)) [Example 15, (+)4-[1-(3-Hydroxyphenyl)butoxy]-2-(trifluoromethyl)benzonitrile]: the inhibition in vivo at 1 % is, setting by setting: under setting [1], -10%; under setting [2], -13%.

As for `COc1cccc(C(C)Oc2ccc(C#N)c(C(F)(F)F)c2)n1` (stereo not drawn) [Example 80, 4-[1-(6-Methoxy-pyridin-2-yl)-ethoxy]-2-trifluoromethyl-benzonitrile], the inhibition in vivo at 1 % runs as follows: under setting [1], 39%; under setting [2], 50%.

Take `CCCC(Oc1ccc(C#N)c(C(F)(F)F)c1)c1cccc(O)c1` (racemic) [Example 14, 4-[1-(3-Hydroxyphenyl)butoxy]-2-(trifluoromethyl)benzonitrile]: the inhibition in vivo at 3 % is, setting by setting: under setting [1], 18%; under setting [2], 38%.

Regarding `Cc1ccc(C(CC(C)C)Oc2ccc(C#N)c(C(F)(F)F)c2)cn1` (stereo not drawn) [Example 89, 4-[3-Methyl-1-(6-methyl-pyridin-3-yl)-butoxy]-2-trifluoromethyl-benzonitrile], the inhibition in vivo at 1 % under setting [1] is 21% and the inhibition in vivo at 1 % under setting [2] stood at 35%.

For `CC(C)CC(Oc1ccc(C#N)c(C(F)(F)F)c1)c1cccnc1` (stereo not drawn) [Example 88, 4-(3-Methyl-1-pyridin-3-yl-butoxy)-2-trifluoromethyl-benzonitrile], the inhibition in vivo at 1 % under setting [1] was 17% and the inhibition in vivo at 1 % under setting [2] stood at 25%.

`N#Cc1ccc(OCc2cccc(O)c2)cc1C(F)(F)F` [Example 6, 4-[(3-Hydroxybenzyl)oxy]-2-(trifluoromethyl)benzonitrile]: the inhibition in vivo at 1.5 % under setting [1] was 25% and the inhibition in vivo at 1.5 % under setting [2] is 40%.

`CC(Oc1ccc(C#N)c(C(F)(F)F)c1)c1cccc(O)c1` (single isomer, unassigned; (-)) [Example 9, (−)-4-[1-(3-Hydroxyphenyl)ethoxy]-2-(trifluoromethyl)benzonitrile]: the inhibition in vivo at 3 % reads like this: under setting [1], 38%; under setting [2], 52%.

Turning to `CCC(Oc1ccc(C#N)c(C(F)(F)F)c1)c1ccccn1` (stereo not drawn) [Example 79, 4-(1-Pyridin^−2-yl-propoxy)-2-trifluoromethyl-benzonitrile], the inhibition in vivo at 1 % is, setting by setting: under setting [1], 20%; under setting [2], 27%.

Regarding `C=CCC(Oc1ccc(C#N)c(C(F)(F)F)c1)c1cccc(O)c1` (single isomer, unassigned; (-)) [Example 19, (−)4-{[1-(3-Hydroxyphenyl)but-3-enyl]oxy}-2-(trifluoromethyl)benzonitrile], the inhibition in vivo at 1 % by setting is: under setting [1], 6%; under setting [2], 13%.

The record behind these values is patent publication US20090170886A1 (Pfizer Inc, priority 2005, published 2009).
